These results are taken from article PMC3437492 (British Journal of Pharmacology, 2012).

In data set [1] the test system is NA biosynthesis in P. falciparum-infected erythrocytes. In words: Effect on [3H]-hypoxanthine incorporation into nucleic acids. The format is cell-based. To be noted: for IC50: Plasmodium falciparum, Erythrocyte.
The target of data set [2] is CTP:phosphocholine cytidylyltransferase (CCT) (Plasmodium falciparum, UniProt Q8IEE9). The data set can be described thus: CCT assay. Format: biochemical.
In data set [3] the target is T1, choline/ethanolamine phosphotransferase (CEPT) (Plasmodium falciparum, UniProt C6KTB9).
T1 sequence (C6KTB9 1-391): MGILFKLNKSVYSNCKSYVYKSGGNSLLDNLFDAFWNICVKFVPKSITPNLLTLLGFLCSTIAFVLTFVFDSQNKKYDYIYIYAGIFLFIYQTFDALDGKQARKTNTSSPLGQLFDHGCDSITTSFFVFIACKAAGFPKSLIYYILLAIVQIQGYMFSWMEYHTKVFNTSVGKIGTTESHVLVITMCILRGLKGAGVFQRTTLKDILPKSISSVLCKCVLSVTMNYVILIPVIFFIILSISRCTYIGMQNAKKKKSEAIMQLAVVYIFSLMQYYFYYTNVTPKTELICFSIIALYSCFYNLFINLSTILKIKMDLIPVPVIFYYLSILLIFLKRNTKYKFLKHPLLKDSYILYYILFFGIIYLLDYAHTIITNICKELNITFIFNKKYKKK

The subject of data set [4] is parasite choline transporter (poly-specific cation transporter). The data set can be described thus: Choline entry into isolated. The format is cell-based, P. falciparum.
In data set [5] the test system is erythrocyte choline carrier. The data set can be described thus: Carrier-mediated choline entry into IRBC in the presence of 150 µM furosemide. Format: cell-based, human.
Data set [6] relates to erythrocyte choline carrier. As to conditions: normal erythrocytes, 37°C.
In data set [7] the test system is P. falciparum-infected erythrocytes. The data set can be described thus: Total choline entry into P. falciparum-infected erythrocytes. Format: cell-based. As to conditions: no furosemide.
For data set [8], the target named is T2, choline kinase (CK) (Plasmodium falciparum, UniProt Q8IM71).
T2 sequence (Q8IM71 1-440): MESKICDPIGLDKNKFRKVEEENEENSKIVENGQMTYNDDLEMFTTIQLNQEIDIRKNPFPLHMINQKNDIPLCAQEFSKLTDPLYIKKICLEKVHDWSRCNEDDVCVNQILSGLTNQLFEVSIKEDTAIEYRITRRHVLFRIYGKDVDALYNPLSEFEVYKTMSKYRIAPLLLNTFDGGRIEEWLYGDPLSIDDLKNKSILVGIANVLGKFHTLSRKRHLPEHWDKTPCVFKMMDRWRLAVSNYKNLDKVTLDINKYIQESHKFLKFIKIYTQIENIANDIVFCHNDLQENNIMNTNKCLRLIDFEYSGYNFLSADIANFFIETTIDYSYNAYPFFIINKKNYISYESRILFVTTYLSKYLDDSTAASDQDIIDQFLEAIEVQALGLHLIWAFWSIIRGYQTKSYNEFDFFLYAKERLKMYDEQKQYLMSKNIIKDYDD

Data set [9] has as its system parasite poly-specific cation carrier. As to conditions: for Type of inhibition: inhibition of albitiazolium entry.
Data set [10] relates to PE biosynthesis in P. falciparum-infected erythrocytes. The data set can be described thus: Effect on [3H]-ethanolamine incorporation into PL. The format is cell-based. To be noted: for IC50: read-out: PE50.
The test system of the next data set is normal erythrocytes. The data set can be described thus: Albitiazolium entry into normal erythrocytes. Format: cell-based, human. As to conditions: 30 µM albitiazolium, 8 min, 37°C.
Data set [11] has as its target T2, choline kinase (CK). In words: biochemical.
The test system of another data set is P. falciparum 3D7 strain. The format is cell-based.
The target of data set [12] is T1, choline/ethanolamine phosphotransferase (CEPT). The data set can be described thus: biochemical. To be noted: 0.5 h, read-out: Concentration for complete inhibition.
In the next data set the test system is P. falciparum-IRBC. To be noted: ref Wein et al., cited from earlier work.
The subject of the next data set is human plasma-proteins. As to conditions: at 20 ng·mL^−1; no saturation until 5000 ng·mL^−1; ref unpublished observations; cited from earlier work.
In data set [13] the test system is furosemide-sensitive NPP of P. falciparum IRBC. The data set can be described thus: Albitiazolium entry into P. falciparum-infected erythrocytes. The format is cell-based.
Data set [14] relates to P. falciparum asexual blood stages. As to conditions: ref Vial et al., 2004; cited from earlier work.
Substrate in data set [15]: C[N+](C)(C)CCO
The data set can be described thus: cells, lysate or membranes named. To be noted: other: CK; saturating ATP; pH 7.9.

Values joined by “and” are separate entries in the source; they are usually repeats but may differ in a detail not shown here. Equal entries are not always repeated. Where two headings read alike, the source gives them in different places. Some results are limits rather than exact numbers.

CTP:phosphocholine cytidylyltransferase (CCT), sequence (Q8IEE9 1-896): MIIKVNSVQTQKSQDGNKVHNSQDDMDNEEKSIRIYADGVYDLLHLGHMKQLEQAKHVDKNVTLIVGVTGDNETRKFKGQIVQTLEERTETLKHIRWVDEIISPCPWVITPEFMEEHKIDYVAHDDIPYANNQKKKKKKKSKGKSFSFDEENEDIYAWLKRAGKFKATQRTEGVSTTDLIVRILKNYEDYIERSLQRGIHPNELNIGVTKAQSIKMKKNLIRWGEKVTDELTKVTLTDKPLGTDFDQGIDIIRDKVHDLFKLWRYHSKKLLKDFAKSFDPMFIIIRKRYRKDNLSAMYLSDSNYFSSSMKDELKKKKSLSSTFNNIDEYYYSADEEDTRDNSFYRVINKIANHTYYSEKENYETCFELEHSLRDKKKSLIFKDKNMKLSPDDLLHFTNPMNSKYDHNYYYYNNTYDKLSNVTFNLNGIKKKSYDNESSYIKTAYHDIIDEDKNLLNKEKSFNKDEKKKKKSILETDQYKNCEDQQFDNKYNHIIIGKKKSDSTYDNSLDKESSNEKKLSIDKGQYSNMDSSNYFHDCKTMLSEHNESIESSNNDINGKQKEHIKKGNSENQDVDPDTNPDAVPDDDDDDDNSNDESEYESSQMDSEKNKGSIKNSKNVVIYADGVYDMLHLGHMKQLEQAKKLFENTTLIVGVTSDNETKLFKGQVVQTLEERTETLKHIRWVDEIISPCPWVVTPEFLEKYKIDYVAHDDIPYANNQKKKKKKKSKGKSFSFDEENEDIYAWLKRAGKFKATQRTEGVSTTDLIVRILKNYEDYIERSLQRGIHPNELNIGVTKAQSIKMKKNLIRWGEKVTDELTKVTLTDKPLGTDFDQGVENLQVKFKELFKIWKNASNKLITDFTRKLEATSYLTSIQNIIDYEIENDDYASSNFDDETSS

In the case of `N=C(N)c1ccc(OCCCCCOc2ccc(C(=N)N)cc2)cc1` [pentamidine, reference compound], the “Effect on NA and PC synthesis” value in data set [1] (same conditions as albitiazolium, data not shown) was “affected primarily NA synthesis and not PC synthesis”.
In the case of `C[N+](C)(C)CCOP(=O)(O)O` [phosphocholine], in [2] (CCT), the Vmax was 5.2 ± 1.4 pmol per 10^7 IRBC·min^−1. Further, the Km in data set [2] (read-out: Km for choline-containing substrate, CCT, saturating CTP) is 511 ± 24.8 µM.
Turning to `C[N+](C)(C)CCOP(=O)(O)OP(=O)([O-])OC[C@H]1O[C@@H](n2ccc(N)nc2=O)[C@H](O)[C@@H]1O` [CDP–choline], in data set [3], the Vmax came out at 17.0 ± 1.5 pmol per 10^7 IRBC·min^−1.
Turning to `C[N+](C)(C)CCO` [choline], the “Vmax of parasite choline entry” value in data set [4] (Table 3) is given as 23.3 ± 4.5 pmol per 10^7 IRBC·min^−1. In addition, the “Vmax of choline entry” value is 23.3 ± 4.5 pmol per 10^7 cells·min^−1 in [4] (free parasites (Table 2)); 0.69 ± 0.23 pmol per 10^7 IRBC·min^−1 and 0.7 ± 0.2 pmol per 10^7 IRBC·min^−1 in [5] (IRBC with 150 µM furosemide); 0.43 ± 0.05 pmol per 10^7 RBC·min^−1 in data set [6]. Besides, the Km in [4] (read-out: Km of choline entry, saponin-freed parasites, 10 min, 37°C) was found to be 18.5 ± 3.3 µM; in data set [5] (read-out: Km of choline entry, IRBC with 150 µM furosemide) it was 11 ± 2.4 µM; in data set [6] (read-out: Km of choline entry, n= 4) it was 12.2 ± 2.2 µM. Also, the Choline uptake rate in data set [7] (external concentration of 80 µM choline) came to 1.5 pmol per 10^7 IRBC·min^−1. For the same molecule, the Vmax on choline kinase (CK) [8] is 63.3 ± 11.6 pmol per 10^7 IRBC·min^−1. Besides, the results for the Type of inhibition result in data set [9] and in [9] (listed as Choline) were “competitive inhibition” and “Competitive”, respectively. Moreover, the Ki in data set [9] (read-out: Ki on albitiazolium entry into parasites, Lineweaver–Burk) worked out at 321 µM.
For `Cc1c(CCO)sc[n+]1CCCCCCCCCCCC[n+]1csc(CCO)c1C.[Br-].[Br-]` [albitiazolium, 3,3′-(dodecane-1,12-diyl)bis[5-(2-hydroxyethyl)-4-methyl-1,3-thiazol-3-ium] dibromide], the IC50 was above 1000 µM in data set [10] (Plasmodium falciparum, Erythrocyte, 3 h); above 1000 µM in data set [10] (Plasmodium falciparum, Erythrocyte); above 1000 µM in data set [10] (schizont stage, 2 µM [3H]-ethanolamine, 3 h); above 1000 µM in data set [10] (trophozoite stage, 2 µM [3H]-ethanolamine, 3 h); 240 µM in data set [1] (3 h, read-out: NA50, ring stage, [3H]-hypoxanthine, 3 h); 160 µM in data set [1] (3 h, read-out: NA50, schizont stage, [3H]-hypoxanthine, 3 h). Also, the IC50 in [1] (3 h, read-out: NA50, trophozoite stage, [3H]-hypoxanthine, 3 h) was 340 µM; in data set [1] (read-out: NA50, range over the three stages), 160 to 340 µM; in data set [4] (read-out: IC50 on choline entry into parasites, 15 µM choline, 10 min), 2.3 ± 0.2 µM; against choline kinase (CK) [11], 1500 µM. Further, in data set [10] (up to 10 µM), the “Effect on ethanolamine incorporation” value was “no significant effect”. In the data set on normal erythrocytes, the Albitiazolium entry rate result is reported as “lower than 0.01 pmol per 10^7 RBC·min^−1”. Further, the “Concentrations affecting NA biosynthesis relative to PC50 values” in [1] (higher than the PC50, three stages) is recorded as 13- to 80 fold. In addition, the “Concentration for complete inhibition of choline entry” value in data set [4] (15 µM choline) is 10 µM; in data set [5] (15 µM choline, 150 µM furosemide) it was 12 µM; in data set [7] (15 µM choline, not reached), above 36 µM. In addition, the Type of inhibition result in data set [4] (inhibition of choline entry) is listed as “Competitive”; in data set [5] (150 µM furosemide), “competitive inhibition”. Besides, the Ki in data set [4] (read-out: Ki on choline entry into parasites, Lineweaver–Burk) was 0.53 µM; in data set [5] (read-out: Ki on choline entry, 150 µM furosemide, Lineweaver–Burk) it was 3.1 µM. Also, the IC100 came out at 100000 µM in data set [2] (0.5 h, read-out: Concentration for complete inhibition) and 100000 µM in data set [12]. Also, in the data set on P. falciparum 3D7 strain (combination with choline), the “Type of interaction with choline” value is on record as “highly antagonized”. For the same molecule, the “Type of interaction with ethanolamine” value in the data set on P. falciparum 3D7 strain (combination with ethanolamine) was “additive effect”. Also, the “Type of interaction with serine” value in the data set with P. falciparum 3D7 strain (combination with serine) was “additive effect”. For the same molecule, the “Decrease of antimalarial activity” value with P. falciparum 3D7 strain (in the presence of 6 mM choline) was found to be 28 fold. The “Accumulation in P. falciparum-IRBC” value with P. falciparum-IRBC (external concentration of 100 nM, unpublished observations) was 400 fold. Further, the “cellular accumulation ratio (CAR)” value in the data set with P. falciparum-IRBC (infected erythrocytes at mature stages, in preparation) is listed as around 400. Also, the “Binding to human plasma-proteins” value in the data set with human plasma-proteins was 33%. In addition, the “Vmax of albitiazolium entry” value in data set [13] (8 min, 37°C) was 47.9 ± 4.9 pmol per 10^7 IRBC·min^−1; in data set [9] (free parasites (Table 2)), 6.1 ± 1.1 pmol per 10^7 cells·min^−1; in data set [9] (isolated parasites, 10 min, 37°C), 6.1 ± 1.1 pmol per 10^7 parasites·min^−1. Also, the Km in [13] (read-out: apparent Km of albitiazolium entry, 8 min, 37°C) came to 20.6 ± 4.3 µM. In data set [7] (15 µM choline), the “Concentration from which choline entry is significantly inhibited” value amounted to 4 µM. Also, the “Concentration for complete inhibition” value on choline kinase (CK) [8] is given as 100 mM. The “Concentration effective at treating malaria in vitro” value in data set [14] is on record as around 10 nM.

B1: choline kinase (CK) (Plasmodium falciparum 3D7) (protein)
chain: MESKICDPIGLDKNKFRKVEEENEENSKIVENGQMTYNDDLEMFTTIQLNQEIDIRKNPFPLHMINQKNDIPLCAQEFSKLTDPLYIKKICLEKVHDWSRCNEDDVCVNQILSGLTNQLFEVSIKEDTAIEYRITRRHVLFRIYGKDVDALYNPLSEFEVYKTMSKYRIAPLLLNTFDGGRIEEWLYGDPLSIDDLKNKSILVGIANVLGKFHTLSRKRHLPEHWDKTPCVFKMMDRWRLAVSNYKNLDKVTLDINKYIQESHKFLKFIKIYTQIENIANDIVFCHNDLQENNIMNTNKCLRLIDFEYSGYNFLSADIANFFIETTIDYSYNAYPFFIINKKNYISYESRILFVTTYLSKYLDDSTAASDQDIIDQFLEAIEVQALGLHLIWAFWSIIRGYQTKSYNEFDFFLYAKERLKMYDEQKQYLMSKNIIKDYDD
For B1, the Km in [15] worked out at 31.2 ± 4.1 µM.

What is called Km is the substrate concentration at which the rate is half of its maximum. The term Ki denotes the equilibrium dissociation constant of an inhibitor or competing ligand from its target.
